Source: PubChem BioAssay (NCI)
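Tested at 5 concentrations; 48 h exposure; 96-well plates; endpoints linearly interpolated, else capped at highest concentration. Here, GI50 denotes the concentration required for 50% inhibition of growth. TGI marks complete inhibition of growth.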

How the values were obtained:
Assay in all cases: NCI-60 cell line screen, 48 h
RPMI-8226 leukemia = test system: RPMI-8226 leukemia
K-562 leukemia = test system: K-562 leukemia
SR leukemia = test system: SR leukemia
SK-MEL-28 melanoma = test system: SK-MEL-28 melanoma
SF-539 CNS = test system: SF-539 CNS
OVCAR-3 ovarian = test system: OVCAR-3 ovarian
SK-MEL-2 melanoma = test system: SK-MEL-2 melanoma
NCI-H522 lung = test system: NCI-H522 lung
BT-549 breast = test system: BT-549 breast
UACC-257 melanoma = test system: UACC-257 melanoma
HCT-116 colon = test system: HCT-116 colon
CAKI-1 renal = test system: CAKI-1 renal
KM12 colon = test system: KM12 colon
OVCAR-5 ovarian = test system: OVCAR-5 ovarian
A498 renal = test system: A498 renal
SNB-19 CNS = test system: SNB-19 CNS
HCT-15 colon = test system: HCT-15 colon
PC-3 prostate = test system: PC-3 prostate
HS 578T breast = test system: HS 578T breast
MDA-MB-231 breast = test system: MDA-MB-231 breast
COLO 205 colon = test system: COLO 205 colon
U251 CNS = test system: U251 CNS
OVCAR-4 ovarian = test system: OVCAR-4 ovarian
MOLT-4 leukemia = test system: MOLT-4 leukemia
SNB-75 CNS = test system: SNB-75 CNS
HOP-62 NSCLC = test system: HOP-62 NSCLC
CCRF-CEM leukemia = test system: CCRF-CEM leukemia
MALME-3M melanoma = test system: MALME-3M melanoma
HOP-92 NSCLC = test system: HOP-92 NSCLC
MCF7 breast = test system: MCF7 breast
786-0 renal = test system: 786-0 renal
KM20L2 colon = test system: KM20L2 colon
OVCAR-8 ovarian = test system: OVCAR-8 ovarian
SK-OV-3 ovarian = test system: SK-OV-3 ovarian
A549 NSCLC = test system: A549 NSCLC
SF-295 CNS = test system: SF-295 CNS
EKVX NSCLC = test system: EKVX NSCLC
M14 melanoma = test system: M14 melanoma
HT29 colon = test system: HT29 colon
MDA-N = test system: MDA-N
ACHN renal = test system: ACHN renal
TK-10 renal = test system: TK-10 renal
NCI-H23 lung = test system: NCI-H23 lung
HL-60(TB) leukemia = test system: HL-60(TB) leukemia
SNB-78 CNS = test system: SNB-78 CNS
NCI-H460 lung = test system: NCI-H460 lung
SN12C renal = test system: SN12C renal
IGROV1 ovarian = test system: IGROV1 ovarian
MDA-MB-435 = test system: MDA-MB-435
NCI-H226 lung = test system: NCI-H226 lung
T-47D breast = test system: T-47D breast
DU-145 prostate = test system: DU-145 prostate
LOX IMVI melanoma = test system: LOX IMVI melanoma
RXF 393 renal = test system: RXF 393 renal
SF-268 CNS = test system: SF-268 CNS
UO-31 renal = test system: UO-31 renal
SW-620 colon = test system: SW-620 colon
HCC-2998 colon = test system: HCC-2998 colon
SK-MEL-5 melanoma = test system: SK-MEL-5 melanoma
UACC-62 melanoma = test system: UACC-62 melanoma

CN(C)CCCNc1ccnc2cccc([N+](=O)[O-])c12
TGI (RPMI-8226 leukemia): > 100 µM
TGI (K-562 leukemia): > 100 µM
TGI (SR leukemia): > 100 µM
TGI (SK-MEL-28 melanoma): 35.4 µM
TGI (SF-539 CNS): 45.1 µM
TGI (OVCAR-3 ovarian): 20.6 µM
TGI (SK-MEL-2 melanoma): 33.8 µM
TGI (NCI-H522 lung): 18.2 µM
TGI (BT-549 breast): 43.9 µM
TGI (UACC-257 melanoma): 30.7 µM
TGI (HCT-116 colon): 27.7 µM
TGI (CAKI-1 renal): 52.8 µM
TGI (KM12 colon): 27 µM
TGI (OVCAR-5 ovarian): 44.1 µM
TGI (A498 renal): 30.7 µM
TGI (SNB-19 CNS): 56.6 µM
TGI (HCT-15 colon): 39.9 µM
TGI (PC-3 prostate): 30.3 µM
TGI (HS 578T breast): 97.1 µM
TGI (MDA-MB-231 breast): 39.6 µM
TGI (COLO 205 colon): 15.6 µM
TGI (U251 CNS): > 70.7 µM
TGI (OVCAR-4 ovarian): 20.4 µM
TGI (MOLT-4 leukemia): > 100 µM
TGI (SNB-75 CNS): 73.4 µM
TGI (HOP-62 NSCLC): > 56.9 µM
TGI (CCRF-CEM leukemia): > 100 µM
TGI (MALME-3M melanoma): 21.4 µM
TGI (HOP-92 NSCLC): 28.8 µM
TGI (MCF7 breast): 28.2 µM
TGI (786-0 renal): 37.1 µM
TGI (KM20L2 colon): 25.9 µM
TGI (OVCAR-8 ovarian): > 100 µM
TGI (SK-OV-3 ovarian): 22.9 µM
TGI (A549 NSCLC): 35.7 µM
TGI (SF-295 CNS): 36.5 µM
TGI (EKVX NSCLC): 19.9 µM
TGI (M14 melanoma): 25.8 µM
TGI (HT29 colon): 27 µM
TGI (MDA-N): 47 µM
TGI (ACHN renal): 24.3 µM
TGI (TK-10 renal): 36 µM
TGI (NCI-H23 lung): 23.5 µM
TGI (HL-60(TB) leukemia): > 100 µM
TGI (SNB-78 CNS): 61.6 µM
TGI (NCI-H460 lung): 25.2 µM
TGI (SN12C renal): 30.8 µM
TGI (IGROV1 ovarian): 28.3 µM
TGI (MDA-MB-435): 42.3 µM
TGI (NCI-H226 lung): 38.2 µM
TGI (T-47D breast): 80.8 µM
TGI (DU-145 prostate): > 100 µM
TGI (LOX IMVI melanoma): 35.8 µM
TGI (RXF 393 renal): 61.1 µM
TGI (SF-268 CNS): 47.7 µM
TGI (UO-31 renal): 38.8 µM
TGI (SW-620 colon): 40.1 µM
TGI (HCC-2998 colon): 32.1 µM
TGI (SK-MEL-5 melanoma): 24.4 µM

C1C[OH+]CC[OH+]CC[OH+]CC[OH+]CC[OH+]CC[OH+]1.[Cl-].[V]
GI50 (RPMI-8226 leukemia): 64.1 µM
TGI (RPMI-8226 leukemia): > 100 µM
GI50 (K-562 leukemia): > 100 µM
TGI (K-562 leukemia): > 100 µM
GI50 (SK-MEL-28 melanoma): 13.7 µM
TGI (SK-MEL-28 melanoma): 43.5 µM
GI50 (SF-539 CNS): 5.43 µM
TGI (SF-539 CNS): 17.9 µM
GI50 (OVCAR-3 ovarian): 20.7 µM
TGI (OVCAR-3 ovarian): 41.8 µM
GI50 (SK-MEL-2 melanoma): 29.2 µM
TGI (SK-MEL-2 melanoma): 98.2 µM
GI50 (NCI-H522 lung): 26.3 µM
TGI (NCI-H522 lung): 99.5 µM
GI50 (UACC-257 melanoma): 16.6 µM
TGI (UACC-257 melanoma): 37.4 µM
GI50 (HCT-116 colon): 35.9 µM
TGI (HCT-116 colon): > 100 µM
GI50 (CAKI-1 renal): 36.9 µM
TGI (CAKI-1 renal): > 100 µM
GI50 (KM12 colon): 31.3 µM
TGI (KM12 colon): > 100 µM
GI50 (A498 renal): > 100 µM
TGI (A498 renal): > 100 µM
GI50 (SNB-19 CNS): 47.1 µM
TGI (SNB-19 CNS): > 100 µM
GI50 (HCT-15 colon): 50.9 µM
TGI (HCT-15 colon): > 100 µM
GI50 (COLO 205 colon): > 100 µM
TGI (COLO 205 colon): > 100 µM
GI50 (U251 CNS): 35.8 µM
TGI (U251 CNS): > 100 µM
GI50 (OVCAR-4 ovarian): 2.52 µM
TGI (OVCAR-4 ovarian): 9.27 µM
GI50 (MOLT-4 leukemia): 82.5 µM
TGI (MOLT-4 leukemia): > 100 µM
GI50 (SNB-75 CNS): 13.9 µM
TGI (SNB-75 CNS): 30 µM
GI50 (HOP-62 NSCLC): 19.2 µM
TGI (HOP-62 NSCLC): 33.9 µM
GI50 (MALME-3M melanoma): 8.19 µM
TGI (MALME-3M melanoma): 28.7 µM
GI50 (HOP-92 NSCLC): 31.5 µM
TGI (HOP-92 NSCLC): 99.2 µM
GI50 (786-0 renal): 11.7 µM
TGI (786-0 renal): 33.9 µM
GI50 (KM20L2 colon): 46.5 µM
TGI (KM20L2 colon): > 100 µM
GI50 (OVCAR-8 ovarian): > 100 µM
TGI (OVCAR-8 ovarian): > 100 µM
GI50 (SK-OV-3 ovarian): 45.9 µM
TGI (SK-OV-3 ovarian): 97 µM
GI50 (A549 NSCLC): 39.1 µM
TGI (A549 NSCLC): > 100 µM
GI50 (SF-295 CNS): 18.7 µM
TGI (SF-295 CNS): 43.8 µM
GI50 (M14 melanoma): 12.1 µM
TGI (M14 melanoma): 93.8 µM
GI50 (HT29 colon): 39.7 µM
TGI (HT29 colon): > 100 µM
GI50 (ACHN renal): 31.1 µM
TGI (ACHN renal): > 100 µM
GI50 (TK-10 renal): 20.4 µM
TGI (TK-10 renal): 92.5 µM
GI50 (NCI-H23 lung): 21.9 µM
TGI (NCI-H23 lung): 47.7 µM
GI50 (HL-60(TB) leukemia): 37.1 µM
TGI (HL-60(TB) leukemia): > 100 µM
GI50 (NCI-H460 lung): 36 µM
TGI (NCI-H460 lung): > 100 µM
GI50 (SN12C renal): > 100 µM
TGI (SN12C renal): > 100 µM
GI50 (IGROV1 ovarian): 13 µM
TGI (IGROV1 ovarian): > 100 µM
GI50 (NCI-H226 lung): 40.1 µM
TGI (NCI-H226 lung): > 100 µM
GI50 (LOX IMVI melanoma): 20.7 µM
TGI (LOX IMVI melanoma): 38.7 µM
GI50 (RXF 393 renal): 4.89 µM
TGI (RXF 393 renal): 19 µM
GI50 (UACC-62 melanoma): 10.7 µM
TGI (UACC-62 melanoma): 51.4 µM
GI50 (SF-268 CNS): 42.9 µM
TGI (SF-268 CNS): > 100 µM
GI50 (UO-31 renal): > 100 µM
TGI (UO-31 renal): > 100 µM
GI50 (SW-620 colon): 49.6 µM
TGI (SW-620 colon): > 100 µM
GI50 (HCC-2998 colon): 71.9 µM
TGI (HCC-2998 colon): > 100 µM
GI50 (SK-MEL-5 melanoma): 4.76 µM
TGI (SK-MEL-5 melanoma): 25.3 µM
